Source: patent US20030130200A1, “Small peptides and methods for treatment of asthma and inflammation” (Hisatek, LLC, priority 1997, published 2003)

Columns and labels:
mast cells = assay: Rat skin model for inhibition of mast cell degranulation induced by Compound 48/80 (area of capillary permeability/bluing); format: in vivo, rat (male Sprague-Dawley); conditions: for % Degranulation: percent mast cell degranulation produced by 48/80, 100 nanomoles peptide, 0.15 μg Compound 48/80
Excerpt: The Rat Skin Model for Determination of Inhibition of Mast Cell Degranulation
Allergy induced asthma results from exposure of substances (allergens) to which an organism has become hypersensitized. Exposure to allergen results in degranulation of mast cells in the lung, releasing leukotrienes and histamines. […] Respiratory symptoms resulting from such an exposure range from mild (itching and sneezing) to potentially fatal (asthma), including in extreme chronic cases death by anaphylaxis.
In this model, the blood plasma of the experimental rat is labeled with the dye trypan blue. This soluble dye is carried in the bloodstream as a passive marker of plasma itself, and is excluded from live cells. Intact blood vessels including the capillary system, retain this dye under normal circumstances. A compound, which induces degranulation of mast cells (resulting in leukotriene and histamine release), is injected into the skin to simulate allergen-induced degranulation. In these experiments, Compound 48/80 was used for this purpose. In the events following leukotriene and histamine release, capillary permeability is increased, and plasma, dyed blue, leaks from capillaries and dyes the skin surrounding the injection site blue. The area of bluing is a measure of the amount of Compound 48/80 injected.
A compound can be tested for “anti-leukotriene” and/or “anti-histamine” activity by mixing it with Compound 48/80 prior to injection.
The rat skin model was undertaken and validated. Various peptides were tested at a predetermined dose for anti-leukotriene and/or anti-histamine activity. The dose selected allowed a general comparison to f-Met-Leu-Phe, which was standard compound for comparison.
A “dose response” titration was performed for some compounds and compared with the standard compound. Observing serial decreases in the size areas of capillary permeability using serially smaller doses of the putative inhibitory compound validates the inhibition of leukotriene and/or histamine release observed in the initial predetermined dose test.
Reagents were obtained from Sigma or Aldrich, with the exception of ketamine, a veterinary anaesthetic that was obtained from various veterinary suppliers. The rats used were male Sprague-Dawley breed, 220-240 g at time of purchase from B&K International.
For the rat skin reaction, rats were anaesthetized with 0.25 ml 10 mg/ml ketamine. 1.0 ml trypan blue in saline (sterile filtered) was administered in a tail vein, and the back of the rat was shaved. Four intradermal injection sites per rat were used for test and control injections.
Compound 48/80 was prepared as a 1.5 mg/ml stock solution in saline. […] Serial dilutions in saline to working levels were prepared just prior to injection of each rat.
Peptides were prepared as a 23 mM stock solution in DMSO, and stored at −20° C. between experiments. At the time of use, the frozen stock solutions were thawed, and appropriate aliquots added to dilutions of Compound 48/80, along with appropriate amounts of DMSO, to result in the ratio of 5 μl DMSO to 0.1 ml aqueous Compound 48/80.
For injections, 0.1 ml Compound […], +/− test compounds were injected intradermally into anaesthetized, dyed, and shaved rats. Following a 15 minute incubation, the rats were sacrificed by cervical dislocation and the back skin was evulsed and placed on a light box. An image of the backlit skin was digitized using a CCD video capture camera and compatible hardware/software. The digitized image was analyzed using a scientific graphics analysis software package, and the areas of capillary permeability (bluing) were integrated and digital values were obtained for further analysis.
A dose response curve was generated using Compound 48/80 at various doses from ca. 0.01 μg through ca 15 μg. […] A dose of 0.15 μg of Compound 48/80 was selected for conducting further tests.
A dose response curve was prepared for the standard compound, f-Met-Leu-Phe, using the selected dose of 0.15 μg Compound 48/80. […]

[1] = tested on: OVA-induced asthmatic mice; assay: OVA-induced bronchial asthma mouse model, Standard/Resolution protocols, drug before each i.n. challenge; format: in vivo, mouse (female BALB/c); conditions: 1-, 2- and 3-month groups, versus OVA
Excerpt: The OVA-Induced Bronchial Asthma Mouse Model for Inhibition of Mast Cell Degranulation
Reagents: Crystalline OVA was obtained from Pierce Chem. Co. (Rockford, Ill.) aluminum potassium sulfate (alum) from Sigma Chem. Co. (St. Louis, Mo.), pyrogen-free distilled water from Baxter, Healthcare Corporation (Deerfield, Ill.), 0.9% sodium chloride (normal saline) from Lymphomed (Deerfield, Ill.) and Trappsol™ HPB-L100 (aqueous hydroxypropyl beta cyclodextrin; 45 wt/vol % aqueous solution) from Cyclodextrin Technologies Development, Inc. (Gainesville, Fla.). The OVA (500 μg/ml in normal saline) was mixed with equal volumes of 10% (wt/vol) alum in distilled water. The mixture (pH 6.5 using 10 N NaOH) after incubation for 60 minutes at room temperature underwent centrifugation at 750 g for 5 minutes; the pellet was resuspended to the original volume in distilled water and used within one hour.
The selective 5-lipoxtgenase inhibitor, Zileuton (N-[1-benzo[b]thien-2-ylethyl]-N-hydroxyurea; J. Pharmacol Exp Ther. 1991; 256: 929-937), was kindly provided by Drs. Bell and George W. Carter (Abbott Laboratories, Abbott Part, Ill.). Zileuton was dissolved in Trappsol.™. Histatek, Inc. (Seattle, Wash.) provided the mast cell degranulation inhibitor, f-Met-Leu-Phe-Phe (“HK-X”).
Female BALB/c […] (6-8 wk of age at purchase; D and K, Seattle Wash.) were housed under conventional conditions for the studies.
Allergen Immunization/Challenge Protocols: Mice received an i.p. injection of 0.2 ml (100 μg) of OVA with alum on the different protocols of Standard (FIG. 5A) and Resolution (FIG. 5B) (J. Exp Med. 1996; 184: 1483-1494). According to the different protocols, mice were anesthetized with 0.2 ml i.p. of ketamine (0.44 mg/ml)/xylazine (6.3 mg/ml) in normal saline before receiving an intranasal (i.n.) does of 100 μg OVA in 0.05 ml normal saline and an i.n. dose of 50 μg OVA in 0.05 ml normal saline separately on different days. Two control groups were used. Accordingly, the first group received normal saline with alum i.p. and normal saline without alum i.n.; the second group received OVA with alum i.p., OVA without alum i.n., and normal saline, alone.
The trachea and left lung (the right lung is used for bronchoalveolar lavage (“BAL”)) were obtained and fixed in 10% neutral formaldehyde solution at room temperature for 6˜15h. After being embedded in paraffin, the tissues were cut into 5-um sections and processed with the different staining or immunolabling further. Discombe's eosinophil staining was used for counting the cell numbers with the counterstain of methylene blue. The eosinophil number per unit airway area (2,200 μm^2) was determined by morphometry (J. Pathol. 1992; 166: 395-404; Am Rev Respir Dis. 1993; 147:448-456). Fibrosis was identified with the Masson's trichrome staining. Airway mucus was identified by the following staining method: methylene blue, hematoxylin and eosin, mucicarmine, alcian blue, and alcian blue/periodic acid-Schiff (PAS) reaction (Troyer, H., “Carbohydrates” in Principles and Techniques of Histochemistry, Little, Brown and Company, Boston, Mass., 1980: 89-121; Sheehan, D. C., et al., “Carbohydrates” in Theory and Practice of Histotechnology, Battle Press, Columbus, Ohio, 1980: 159-179). Mucin was stained with mucicarmine solution; metanil yellow counterstain was employed.
Acidic mucin and sulfated mucosubstances were stained with alcian blue, pH 2.5; nuclear fast red counterstain was used. Neutral and acidic mucosubstances were identified by alcian blue. pH 2.5, and PAS reaction. The degree of mucus plugging of the airways (0.5-0.8 mm in diameter) was also assessed by morphometry. The percent occlusion of airway diameter by mucus was classified on a semiquantitative scale from 0 to 4+ as described in Figure Legends. The histologic and morphometric analyses were performed by individuals blinded to the protocol design. […]

Q: Which “% Degranulation” value (mast cells) does the source give for f-Met-Leu-Tyr [Example 10] here?
A: 30%

Q: For N-acetyl-Met-Leu-Phe [Example 3], which “% Degranulation” value (mast cells) is on record?
A: 98%

Q: Which “Reduction of airway eosinophils over time course” value [1] does the source give for CC(c1cc2ccccc2s1)N(O)C(N)=O (centres unmarked) [Zileuton, N-[1-benzo[b]thien-2-ylethyl]-N-hydroxyurea, reference compound] here?
A: reduced eosinophils generally through 1-3 month

Q: How did the “Inhibition of degranulation induced by Compound 48/80, dose response curve” value (mast cells; doses of 0 to about 230 nM peptide, 0.15 μg Compound 48/80 (FIG. 2, FIG. 3)) turn out when “f-Met-Leu-Phe [Example 2, reference compound]” was run?
A: Inhibition of degranulation induced by Compound 48/80 was clearly shown

Q: What about the “% Degranulation” value (mast cells) of the same compound?
A: 60%
